The values that follow come from ChEMBL document CHEMBL1201862, “PubChem BioAssay data set” (2004).

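Cells were grown in 96-well plates and exposed to each compound for 48 hours at five concentrations; endpoints were interpolated linearly between bracketing concentrations, or set to the highest concentration if not reached. GI50 = concentration required for 50% inhibition of growth.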 Activity calls are given as the source filed them. No stated cut-off is given here; in the data, active = GI50 up to about 1.1 µM and inactive = higher.

Holding throughout (test): NCI tumour cell line growth inhibition, 48 h
Experiment [1] concerns 786-0.
Experiment [2] concerns A498.
Experiment [3] has as its system A549.
In experiment [4] the test system is ACHN.
Experiment [5] concerns DU-145.
Experiment [6] concerns HCC 2998.
The subject of experiment [7] is HCT-15.
Experiment [8] concerns Hs-578T.
Experiment [9] relates to K562.
Experiment [10] relates to Malme-3M.
For experiment [11], the system named is NCI-H226.
The test system of experiment [12] is OVCAR-4.
The test system of experiment [13] is PC-3.
Experiment [14] concerns RXF 393.
Experiment [15] relates to SK-MEL-5.
The test system of experiment [16] is SNB-19.
Experiment [17] deals with SNB-75.
The subject of experiment [18] is SW-620.
In experiment [19] the test system is U-251.
For experiment [20], the system named is UO-31.

Turning to `CCOC(=O)/C=C/[C@H](O[Si](c1ccccc1)(c1ccccc1)c1ccccc1)C(C)(C)C`, the GI50 in experiment [1] is > 31.6 µM (inactive); in experiment [2], > 31.6 µM (inactive); in experiment [3], 23.3 µM (inactive); in experiment [4], > 31.6 µM (inactive); in [5], > 31.6 µM (inactive); in [6], 5.92 µM (inactive). Further, the GI50 in experiment [7] was more than 31.6 µM; in experiment [8], 20.5 µM (inactive); in [9], 7.78 µM (inactive); in experiment [10], > 31.6 µM (inactive); in experiment [11], > 31.6 µM (inactive); in experiment [12], > 31.6 µM (inactive). Also, the GI50 in [13] was 10.5 µM (inactive); in experiment [14], 15.5 µM (inactive); in experiment [15], 10.2 µM (inactive); in experiment [16], > 31.6 µM (inactive); in [17] it was > 31.6 µM (inactive); in experiment [18] it was > 31.6 µM (inactive). For the same molecule, the GI50 in experiment [19] and in experiment [20] was > 31.6 µM (inactive) throughout.

Regarding `N#Cc1cccc(N2C(=O)C3C4C=CC(C3C2=O)C2C(=O)N(c3cccc(C#N)c3)C(=O)C42)c1` (stereo unspecified), the GI50 is 33.1 µM (inactive) in experiment [1]; 22.4 µM (inactive) in [2]; 51.2 µM (inactive) in [3]; 40.7 µM (inactive) in experiment [4]; > 100 µM (inactive) in experiment [5]; > 56.2 µM (inactive) in experiment [6]. The GI50 in experiment [7] is more than 63.1 µM; in [8] it was 40 µM (inactive); in [9], 46.9 µM (inactive); in experiment [10] it was 53.6 µM (inactive); in experiment [11], 62.1 µM (inactive); in experiment [12], > 63.1 µM (inactive). Further, the GI50 was > 100 µM (inactive) in experiment [13]; 10.2 µM (inactive) in experiment [14]; > 63.1 µM (inactive) in [15]; 31.2 µM (inactive) in experiment [16]; 6.12 µM (inactive) in [17]; > 100 µM (inactive) in experiment [18]. For the same molecule, the GI50 in [19] is 10.1 µM (inactive); in experiment [20] it was 49.1 µM (inactive).

With `Cc1cc(NC(=O)NC(=O)c2ccccc2NC(=O)C(C)N)ccc1Oc1ncc(Br)cn1` (stereo unspecified), the GI50 is 0.0559 µM (active) in experiment [1]; 0.025 µM (active) in experiment [2]; 0.153 µM (active) in [3]; 1.22 µM (inactive) in experiment [4]; 0.136 µM (active) in experiment [5]; 0.298 µM (active) in experiment [6]. Also, the GI50 in [7] is 0.31 µM; in experiment [8], 0.0159 µM (active); in [9], 0.136 µM (active); in experiment [10], 0.188 µM (active); in [11] it was 0.0703 µM (active); in experiment [12], 5.36 µM (inactive). Moreover, the GI50 in experiment [13] was 0.0391 µM (active); in experiment [14] it was 0.0111 µM (active); in experiment [15] it was 0.0457 µM (active); in experiment [16], 0.248 µM (active); in [17] it was < 0.01 µM (active); in experiment [18], 0.185 µM (active). Further, the GI50 in experiment [19] was 0.202 µM (active); in experiment [20] it was 0.216 µM (active).

As to `O=[N+]([O-])c1ccc(/C=C/c2cc(-c3ccccc3)nc3ccc4ccccc4c23)cc1`, the GI50 in experiment [1], in experiment [2], in experiment [3], in [4], in experiment [5] and in experiment [6] was > 100 µM (inactive) each time. Besides, the GI50 in [7] was more than 100 µM; in [8], > 100 µM (inactive); in experiment [9], > 100 µM (inactive); in experiment [10], > 100 µM (inactive); in [11], > 100 µM (inactive); in experiment [12], > 100 µM (inactive). Moreover, the GI50 is > 100 µM (inactive) in experiment [13]; > 100 µM (inactive) in experiment [14]; > 100 µM (inactive) in experiment [15]; > 100 µM (inactive) in [16]; 16.9 µM (inactive) in experiment [17]; > 100 µM (inactive) in experiment [18]. Further, the GI50 in experiment [19] and in experiment [20] was > 100 µM (inactive) in each case.

In the case of `C=C(C)C(=O)/N=C(\N)NC#N`, the GI50 in experiment [1] is 37.8 µM (inactive); in experiment [2], > 46.5 µM (inactive); in experiment [3], 168 µM (inactive); in experiment [4], 138 µM (inactive); in [5], 70.5 µM (inactive); in [6] it was 132 µM (inactive). Further, the GI50 is 44.6 µM in experiment [7]; 161 µM (inactive) in [8]; 21.8 µM (inactive) in experiment [9]; 24.8 µM (inactive) in [10]; 145 µM (inactive) in experiment [11]; 19.9 µM (inactive) in experiment [12]. Besides, the GI50 in experiment [13] was 158 µM (inactive); in [14], 36.6 µM (inactive); in experiment [15] it was 75.2 µM (inactive); in experiment [16] it was 182 µM (inactive); in [17], 67.9 µM (inactive); in [18], 19.3 µM (inactive). In addition, the values for the GI50 in experiment [19] and in experiment [20] were > 76.9 µM (inactive) and > 62.7 µM (inactive), respectively.

In the case of `CCN(CC)CC(O)c1ccc2ccc3ccccc3c2c1` (stereo unspecified), the GI50 was 12.9 µM (inactive) in experiment [1]; 12.6 µM (inactive) in experiment [2]; 15.7 µM (inactive) in [3]; 14.3 µM (inactive) in [4]; 19 µM (inactive) in experiment [5]; 11 µM (inactive) in experiment [6]. Further, the GI50 in experiment [7] was 16.3 µM; in experiment [8] it was 18.7 µM (inactive); in experiment [9] it was 17 µM (inactive); in experiment [10] it was 16.9 µM (inactive); in experiment [11] it was 13.6 µM (inactive); in experiment [12], 17.4 µM (inactive). For the same molecule, the GI50 is 15.8 µM (inactive) in experiment [13]; 16.8 µM (inactive) in experiment [14]; 13.9 µM (inactive) in [15]; 14.7 µM (inactive) in [16]; 19.1 µM (inactive) in [17]; 18.5 µM (inactive) in [18]. The GI50 in [19] is 13.3 µM (inactive); in [20], 11.2 µM (inactive).

`C=C1C(=O)OC2/C=C(\CO)C3OC3C3OC3(C)CC(OC(=O)/C(=C/C)CO)C12` (stereo unspecified): the GI50 in experiment [1] was 36.8 µM (inactive); in experiment [2], > 100 µM (inactive); in experiment [3], > 100 µM (inactive); in [4], 49.5 µM (inactive); in experiment [5], > 100 µM (inactive); in [6], > 100 µM (inactive). The GI50 was 36.6 µM in experiment [7]; > 100 µM (inactive) in experiment [8]; 24.8 µM (inactive) in [9]; 25.5 µM (inactive) in experiment [10]; > 100 µM (inactive) in experiment [11]; 45.4 µM (inactive) in experiment [12]. In addition, the GI50 in [13] is > 100 µM (inactive); in experiment [14] it was 47.1 µM (inactive); in experiment [15], > 100 µM (inactive); in experiment [16], > 100 µM (inactive); in experiment [17], > 100 µM (inactive); in [18] it was 30.1 µM (inactive). For the same molecule, the GI50 was 55.2 µM (inactive) in [19] and > 100 µM (inactive) in experiment [20].

`COC(=O)C1=NN2c3ccccc3C(=O)OCCC2(C)C1` (stereo unspecified): the GI50 in experiment [1], in [2], in experiment [3], in [4], in experiment [5] and in experiment [6] was > 100 µM (inactive) in each case. Further, the GI50 in experiment [7] was more than 100 µM; in experiment [8], > 100 µM (inactive); in experiment [9], > 100 µM (inactive); in experiment [10] it was > 100 µM (inactive); in [11] it was > 100 µM (inactive); in [12], > 100 µM (inactive). For the same molecule, the GI50 in [13], in experiment [14], in experiment [15], in experiment [17], in [18] and in experiment [19] was > 100 µM (inactive) each time. In experiment [20], the GI50 is > 100 µM (inactive).

Take `CCN(CC)C(=S)SC1CCOP(=O)(N(CCCl)CCCl)N1C` (stereo unspecified): the GI50 in experiment [1] was 41.2 µM (inactive); in experiment [2] it was 44.9 µM (inactive); in experiment [4], 38.9 µM (inactive); in experiment [5], > 100 µM (inactive); in [6] it was 33.4 µM (inactive); in experiment [7], 28.2 µM. Besides, the GI50 in [8] was > 100 µM (inactive); in experiment [9], 0.399 µM (active); in [10], 27.5 µM (inactive); in experiment [11] it was 48.3 µM (inactive); in [12] it was 29.9 µM (inactive); in experiment [13], > 100 µM (inactive). Moreover, the GI50 in experiment [14] is 29.9 µM (inactive); in experiment [15], 2.96 µM (inactive); in experiment [16], > 92.9 µM (inactive); in [17] it was > 55.1 µM (inactive); in experiment [18], 1.71 µM (inactive); in [20], 67.8 µM (inactive).

`Cn1c2ccc3cc2c(=S)c2cc(ccc21)OCCOCCOCCOCCOCCO3`: the GI50 in experiment [1], in experiment [2], in [3], in [4], in experiment [5] and in [6] was > 10 µM (inactive) throughout. The GI50 in experiment [7] is more than 10 µM; in experiment [8], > 10 µM (inactive); in experiment [9], > 10 µM (inactive); in [10], > 10 µM (inactive); in [11], > 10 µM (inactive); in experiment [12], > 10 µM (inactive). Also, the GI50 in experiment [13], in [14], in experiment [15], in experiment [16], in experiment [17] and in experiment [18] was > 10 µM (inactive) throughout. For the same molecule, in experiment [19], the GI50 was > 10 µM (inactive).
